For experiment [1], the system named is kidney T cells. Put plainly: In vitro kidney T cell proliferation (CFSE) under hypoxia/reoxygenation. In kind it is cell-based, mouse. Particulars: 1 μM JHU083, hypoxia followed by reoxygenation. The procedure: Glutamine blocking effect on the kidney T cell proliferation was assessed with carboxyfluoroscein succinimidyl ester (CFSE) analysis. FACS sorted kidney T cells (CD45^+, TCR αβ^+) were cultured with media containing 1 μM JHU083 or vehicle and underwent hypoxia followed by reoxygenation.
(§1) Kidney T cells were isolated using FACS. Briefly, single-cell suspension of KMNCs was preincubated with anti-CD16/CD32 Fc block (S17011E, BioLegend) stained in Cell Staining Buffer (BioLegend) with fluorochrome-labeled antibodies: APC-Cy7 anti-CD45 (30-F11) and BV421 anti-TCRβ ([…]) from BioLegend. Live Dead Aqua (Thermo Fisher Scientific) was stained for viability assay. […] TCRβ^+ cells were sorted with FACSAria II Cell Sorter (BD Bioscience). Splenic T cells were isolated from single cells suspension of spleens using a T Cell Isolation Kit II (Miltenyi Biotec, North Rhine-Westphalia, Germany) according to the manufacturer's guideline.
48-well flat-bottom plates were coated with 5-μg/mL anti-CD3 in PBS and incubated at 4° C. overnight. Anti-CD3 coated plates were washed with PBS, and isolated cells were cultured in RPMI 1640 GlutaMAX (Thermo Fisher Scientific) supplemented with 10% FBS (Thermo Fisher Scientific), […] HEPES buffer (Thermo Fisher Scientific), 100-μM non-essential amino acid solution (Sigma-Aldrich), and 55-μM 2-mercaptoethanol (Sigma-Aldrich)±JHU083. […]

The test system of experiment [2] is kidney T cells. Put plainly: T cell phenotypes in normal steady-state kidneys. It is filed as in vivo, mouse. Particulars: normal mice, same dosage schedule; vs vehicle. The procedure:
To test whether this immunologic effect was derived from the glutamine blockade or attenuated kidney injury, we studied normal mice treated with JHU083 or vehicle with the same dosage schedule. […] Therefore, changes seen in these markers in post-ischemic kidneys are likely through JHU083-mediated glutamine blockade.
KMNCs were isolated according to our previously described Percoll density gradient protocol. Ascon et al., 2006. Briefly, decapsulated kidneys were immersed and incubated in collagenase D (2 mg/mL; Sigma-Aldrich) solution for 30 min at 37° C. Samples were strained through 70 µm cell strainer (BD Bioscience, Franklin Lakes, NJ), washed, and resuspended in 40% Percoll (GE Healthcare, Chicago, IL) followed by gentle overlaying onto 80% Percoll. After centrifugation at 1,500 g for 30 min in brake off mode at room temperature, KMNCs were collected from interface between 40% and 80% Percoll. […] Cells were counted on hemocytometer using trypan blue exclusion under a microscope.
Cells were washed once with phosphate buffered saline (PBS) and stained with viability dye Zombie NIR Fixable Viability (BioLegend, San Diego, CA) for 15 min at room temperature. […] Samples were analyzed by 4-laser Aurora spectral flow cytometer (Cytek, Fremont, CA). […]

Experiment [3] relates to splenic T cells. Put plainly: In vitro hypoxia/reoxygenation of CD3/CD28 stimulated splenic T cells. In kind it is cell-based, mouse. The procedure: In vitro studies were performed to evaluate the effect of glutamine blockade on activated T cells under hypoxia followed by reoxygenation. Splenic T cells (CD45^+, TCR αβ^+) were isolated and cultured using media containing 0.25 μM, 0.5 μM, or 1 μM of JHU083 or vehicle. After 24 h from the culture under CD3/CD28 stimulation, cells were exposed to hypoxia for 24 h followed by reoxygenation.
as §1
48-well flat-bottom plates were coated with 5-μg/mL anti-CD3 in PBS and incubated at 4° C. overnight. […]

`CCOC(=O)[C@H](CCC(=O)C=[N+]=[N-])NC(=O)[C@@H](N)CC(C)C` [JHU083]: the “cell numbers on day 3” value in experiment [1] is recorded as “significantly lower”. For the same compound, the “proportion of undivided cells (CFSE)” value in experiment [1] (P<0.001) was “significantly higher proportion of undivided cells”. Further, the “phenotype of CD4+ and CD8+ T cells in steady-state kidneys” value in experiment [2] is “skewed toward naïve phenotypes with lower CD69, CD44, and Ki67 and higher CD62L”. In experiment [3] (0.25 μM, 0.5 μM, or 1 μM JHU083, 24 h hypoxia followed by reoxygenation, dose-dependent, vs vehicle), the “expression of activation and proliferation markers (CD44, CD69, CD25, Ki67)” value is “reduced expression of activation and proliferation markers”. The “metabolic profiles of treated T cells” value in experiment [3] (CD3/CD28 stimulation, hypoxia/reoxygenation, FIG. 18B) is on record as “exhibited unstimulated T cell phenotypes”.

These data come from patent US20240408114A1, “METHODS FOR PREVENTING AND TREATING ACUTE KIDNEY INJURY” (The Johns Hopkins University, priority 2021, published 2024).
